In article PMC6100385, “Irinotecan and Δ^9-Tetrahydrocannabinol Interactions in Rat Liver: A Preliminary Evaluation Using Biochemical and Genotoxicity Markers” (Molecules : A Journal of Synthetic Chemistry and Natural …, 2018):

Tests used:
[1] = cited from earlier work
[2] = tested on: hepatocytes of male Wistar rats; test: Alkaline comet assay, primary DNA damage; type: in vivo, rat
Description: The obtained cellular suspension was immediately used for preparation of agarose microgels.
To prepare agarose microgels, we used fully frosted precleaned microscope slides (Surgipath®, Cambridgeshire, UK) precoated with 0.6% normal melting point (NMP) agarose. Suspensions of liver cells (V = 10 µL per slide) were mixed with 0.5% low melting point (LMP) agarose, placed on slides and covered with a top layer of 0.5% LMP agarose. The microgels were lysed overnight at 4 °C in a freshly prepared buffer (2.5 mol/L NaCl (Kemika, Zagreb, Croatia), 100 mmol/L Na2EDTA, 10 mmol/L Tris-HCl, 1% Na-laurylsarcosinate, pH = 10) with 1% Triton X-100 and 10% dimethyl sulfoxide (Kemika, Zagreb, Croatia). After lysis, microgels were denatured (20 min) in alkaline denaturation/electrophoresis buffer (300 mM NaOH (Kemika, Zagreb, Croatia) and 1 mM Na2EDTA, pH > 13). Electrophoresis lasted for 20 min, at 4 °C, 25 V, and 300 mA. The microgels were then neutralised using a Tris-HCl buffer (0.4 mol/L; pH = 7.5). Before microscopic analysis, the slides were stained with ethidium bromide (20 µg/mL). They were analysed using an epifluorescence microscope (Olympus BX50, Tokyo, Japan) equipped with appropriate filters, at 200× magnification. The level of DNA damage in individual cells was estimated using Comet Assay IV™ software (Instem-Perceptive Instruments Ltd., Suffolk, Halstead, UK). One well-trained scorer performed all of the comet measurements on the coded/blinded slides. Random fields were selected and the comets were captured at a constant depth of the gel, avoiding edges and occasional dead cells. A total of 200 comets per rat were measured on replicate slides in two independent evaluations (altogether 1000 individual comet measurements per each experimental group were performed). Tail length (presented in micrometres) and tail intensity (i.e., DNA% in tail) were chosen as indicators of DNA damage.

CDF1 mice = tested on: CDF1 mice; set-up: method as in PMID 9247609; conditions: i.p. at 100 mg/kg for six days; cited from earlier work
rats = conditions: cited from earlier work
humans = tested on: humans; set-up: method as in PMID 11489791; conditions: cited from earlier work
liver of rats [3] = test: Superoxide dismutase (SOD) activity in the liver; type: in vivo, rat; conditions: after 3 days
Description: Total superoxide dismutase (SOD) activity was measured spectrophotometrically according to Flohé and Ötting. The reduction rate of cytochrome c by superoxide radicals was monitored at 550 nm utilizing the xanthine–xanthine oxidase system as the source for O2^•−. SOD competed for the superoxide and decreased the reduction rate of cytochrome c. One unit of SOD was defined as the amount of enzyme that inhibits the rate of cytochrome c reduction by 50%. Enzyme activity was expressed as IU/gprotein.
(§1) Determination of protein concentration was carried out according to the method by Bradford using bovine serum albumin as standard.

male Wistar rats [4] = test: Survival and clinical signs of intoxication; type: in vivo, rat; conditions: IRI 100 mg/kg b.w. i.p. once; own observations same as literature
Description: A total of 60 rats were randomly assigned to the following four groups. Group 1: control rats were given the same daily volume of the vehicle sesame oil as the THC-treated group. […] Group 3: rats orally administered THC dissolved in sesame oil at a daily dose of 7 mg/kg b.w. for one, three and seven days, respectively. […] Each group comprised 5 animals with minimal weight variation (300 g ± 10%).
Rats had free access to food and drinking water. Their body weights were regularly monitored and the doses of THC were adjusted accordingly. Survival and clinical signs of intoxication were also evaluated on a daily basis.

liver cells of rats = tested on: liver cells of rats; set-up: method as in PMID 19663821; conditions: 24 h and 72 h; eleven-fold lower IRI dose than tested here; cited from earlier work
liver of rats [5] = test: Lipid peroxidation (TBARS) in the liver; type: in vivo, rat
Description: The concentration of thiobarbituric reactive substances (TBARS), as a measure of lipid peroxidation, was determined using a modification of the method by Drury et al.. Butylated hydroxytoluene (BHT; 5 µL; 0.2% w/v) and phosphoric acid (750 µL; 1% v/v) were added to 50 µL samples. After mixing, 250 µL 0.6% (w/w) thiobarbituric acid (TBA) and 445 µL H2O were added and the reaction mixture was incubated in a water bath at 90 °C for 30 min. The mixture was cooled and absorbance was measured at 532 nm on a Shimadzu UV Probe Spectrophotometer (Kyoto, Japan). The concentration of TBARS was calculated using standard curves of increasing 1,1,3,3-tetramethoxypropane concentrations, and expressed as µmol/L.

male Wistar rats [6] = test: Serum bilirubin (total bilirubin); type: in vivo, rat; conditions: seven days of continuous intake
Description: (§2) Serum biochemical parameters included AST, ALT, bilirubin, ALP, and total protein. These were determined using a chemical analyser (Beckman Coulter AU 480; Brea, CA, USA). Activities of AST, ALT, and ALP were expressed as U/L. The amount of total protein was expressed as g/L. Bilirubin concentration (total bilirubin) was expressed as µmol/L.

[7] = low doses (<5 µg/mL or <5 µmol/L, or <1 joint/day); cited from earlier work
male Wistar rats [8] = test: Serum alanine aminotransferase (ALT) activity; type: in vivo, rat
Description: as §2

male Wistar rats [9] = conditions: THC 7 mg/kg b.w. p.o.; all three timepoints
Description: as §2

Sprague-Dawley rats = conditions: 3 mg/kg b.w. i.p. for seven days; cited from earlier work
liver of rats [10] = test: Catalase (CAT) activity in the liver; type: in vivo, rat; conditions: one day after application, single dose
Description: Catalase activity was measured at 25 °C, pH 7.0, at 240 nm. Enzyme activity was calculated using the molar extinction coefficient ([…]), and expressed as IU/gprotein.
as §1

male Wistar rats [11] = test: Serum markers of liver function, overall; type: in vivo, rat; conditions: 1-, 3-, 7-day treatments
Description: as §2

male Wistar rats [12] = conditions: THC p.o.; days 1 and 3
Description: as §2

CCc1c2c(nc3ccc(OC(=O)N4CCC(NCCCCC(=O)O)CC4)cc13)-c1cc3c(c(=O)n1C2)COC(=O)C3(O)CC (stereo not drawn) [APC, 7-ethyl-10-[4-N-(5-aminopentanoic acid)-1-piperidino]carbonyloxycamptothecin]
cytotoxic potential [1]: significantly lower cytotoxic potential

CCc1c2c(nc3ccc(OC(=O)N4CCC(N5CCCCC5)CC4)cc13)-c1cc3c(c(=O)n1C2)COC(=O)[C@]3(O)CC [IRI, 7-ethyl-10-[4-(1-piperidino)-1-piperidino] carbonyloxycamptothecin]
comet tail intensity, mean, vs control and THC groups ([2]; 1-day treatment): significantly increased
comet tail length, mean, vs control and THC groups ([2]; 1-day treatment): significantly increased
comet tail intensity, mean, vs control and THC groups ([2]; 3-day treatment): significantly increased
comet tail length, mean, vs control and THC groups ([2]; 3-day treatment): significantly increased
comet tail intensity, mean, rank among groups ([2]; 7-day treatment): highest mean value
DNA damage, rank among groups ([2]; all timepoints): highest DNA damage
primary DNA damage, 1-day vs 3 days ([2]; single IRI): lower than after 3 days
level of DNA damage with prolonged treatment duration ([2]; single IRI, seven days): slightly diminished
lipid peroxidation in the liver (CDF1 mice): increases of IRI-potentiated lipid peroxidation
maximum tolerated dose for rats (rats; per week): 100 mg/kg b.w.
mortality and gastrointestinal mucositis (rats; single dose of 200 mg/kg): low mortality, but caused reproducible gastrointestinal mucositis
maximal and recommended tolerated human doses (humans): 10–30 mg/m^2/day
SOD activity in liver vs control (liver of rats [3]): significantly higher
severe diarrhoea and gastrointestinal toxicity (male Wistar rats [4]): did not result with severe diarrhoea and gastrointestinal toxicity
primary DNA damage in liver cells (liver cells of rats): significant increase
TBARS concentration in liver, IRI-treated vs control (liver of rats [5]; 3- and 7-day timepoints): not significant
TBARS concentration in liver (lipid peroxidation), rank among groups (liver of rats [5]; one day following application): highest level of lipid peroxidation

CCc1c2c(nc3ccc(O)cc13)-c1cc3c(c(=O)n1C2)COC(=O)[C@]3(O)CC [SN-38]
cytotoxicity relative to the parent compound (IRI) [1]: 100–1000 fold

CCCCCc1cc(O)c2c(c1)OC(C)(C)C1CCC(C)=CC21 (stereo not drawn) [THC, Δ^9-tetrahydrocannabinol]
serum bilirubin level vs single IRI and combined treatment (male Wistar rats [6]): higher
genotoxic adverse outcomes [7]: usually not associated with genotoxic adverse outcomes
comet tail length, mean ([2]; continuous 7-day oral exposure, compared to shorter treatments): significantly higher mean value of tail length
risk for genotoxicity ([2]; shorter exposures (1-, 3-day) to THC p.o.): not associated with a significant risk for genotoxicity
ALT activity in serum vs IRI-treated rats (male Wistar rats [8]; 3-day exposure): statistically significant increase
ALT level in serum (male Wistar rats [8]; THC p.o., day 3): somewhat increased
AST activity in serum, trend (male Wistar rats [9]): trend towards increased AST activity
lipid peroxidation in the liver (Sprague-Dawley rats): slightly elevated
liver CAT activity vs control rats (Sprague-Dawley rats): decreased
liver SOD activity vs control rats (Sprague-Dawley rats): non-significant decrease
CAT activity in liver vs control and IRI-treated rats (liver of rats [10]): significantly increased
liver function / serum liver markers, overall (male Wistar rats [11]): affected ALP and AP levels more than single IRI
ALP level in serum (male Wistar rats [12]): increased

CCc1c2c(nc3ccc(OC(=O)N4CCC(N)CC4)cc13)-c1cc3c(c(=O)n1C2)COC(=O)[C@]3(O)CC [NPC, 7-ethyl-10-[4-(1-piperidino)-1-amino]-carbonyloxycamptothecin]
cytotoxic potential [1]: significantly lower cytotoxic potential
